Reference: patent US10028992B2, “Methods of treating muscular dystrophy” (BOARD OF REGENTS OF THE NEVADA SYSTEM OF HIGHER EDUCATION …, priority 2012, dated 2018)
Like-named read-outs stand apart in the source and are kept apart here.

Tested on: α7 integrin promoter
Assay: muscle cell-based assay: α7βgal+/− myoblasts/myotubes, LacZ reporter, β-galactosidase cleavage of FDG
Design: species or system mouse; Results in α7+/− β-galactosidase assay: scale not given here
Details: for AC50 / EC50: Mus musculus; for AC50: log of AC50, given with negative sign, unit of AC50 not given, read-out: Fit Log AC50 (converted); for Results in a α7+/− β-galactosidase assay, Myotubes, 0.5 uM: compound at 0.5 uM; for Results in a α7+/− β-galactosidase assay, Myotubes, 1 uM: compound at 1 uM; for Results in a α7+/− β-galactosidase assay, Myotubes, 5 uM: compound at 5 uM; for Results in a α7+/− β-galactosidase assay, Myotubes, 10 uM: compound at 10 uM; for Results in a α7+/− β-galactosidase assay, Myotubes, 20 uM: compound at 20 uM; for Results in a α7+/− β-galactosidase assay, Myotubes, 40 uM: compound at 40 uM; for EC50: read-out: Fit LogAC50 (converted)
Procedure, shortened: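 Primary α7βgal+/− mouse myoblasts (LacZ knocked into α7 integrin exon 1, promoter retained), differentiated; promoter activity read as β-galactosidase conversion of non-fluorescent FDG to fluorescein. Hits followed by dose-response, western analysis and myostatin counterscreen.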

[1] = Table 12, fitted activity at zero concentration
[2] = Table 12 Compound data, concentration-response curve fit

Structure (SMILES) | Results in α7+/− β-galactosidase assay (Myoblasts, 0.5 uM) | Results in α7+/− β-galactosidase assay (Myoblasts, 1 uM) | Results in α7+/− β-galactosidase assay (Myoblasts, 5 uM) | Results in α7+/− β-galactosidase assay (Myoblasts, 10 uM) | Results in α7+/− β-galactosidase assay (Myoblasts, 20 uM) | Results in α7+/− β-galactosidase assay (Myoblasts, 40 uM) | Results in a α7+/− β-galactosidase assay, Myotubes, 0.5 uM (Myotubes) | Results in a α7+/− β-galactosidase assay, Myotubes, 1 uM (Myotubes) | Results in a α7+/− β-galactosidase assay, Myotubes, 5 uM (Myotubes) | Results in a α7+/− β-galactosidase assay, Myotubes, 10 uM (Myotubes) | Results in a α7+/− β-galactosidase assay, Myotubes, 20 uM (Myotubes) | Results in a α7+/− β-galactosidase assay, Myotubes, 40 uM (Myotubes) | also measured
CC(C)(CC(=O)O)CC(=O)N1CCCN(c2nccc(C(F)(F)F)n2)CC1 [Compound 56] |  |  |  |  |  |  |  |  |  |  |  |  | AC50 (Table 12): 3.98 µM; Fit HillSlope (Table 12, curve fit): 1.5095; Fit Zero Activity [%] [1]: 21.8862%; Fit Curve Class (Table 12, key not given): 2.1; Score [2]: 45
O=C(CCc1ccccc1)c1nnc(-c2ccccc2)o1 [drawing 575] | 0.0917 | 0.1045 | 0.03485 | −0.04687 | −0.02713 | −0.06265 |  |  |  |  |  |  | 
CC(C)c1ccc(NC(=O)CN2C(=O)c3ccccc3S2(=O)=O)cc1 [drawing 607] | −0.1297 | −0.1704 | 0.367 | −0.05458 | −0.03658 | −0.09806 |  |  |  |  |  |  | 
CC(O)CNc1nc2c(c(=O)n(Cc3ccc(Br)cc3)c(=O)n2C)n1C (centres unmarked) [drawing 580] | 0.04963 | 0.02595 | −0.05885 | −0.1174 | −0.1471 | −0.218 |  |  |  |  |  |  | 
Nc1cccc(/C=C/C(=O)O)c1 [drawing 676] | 0.1361 | 0.05647 | −0.05605 | 0.2478 | −0.08666 | −0.2769 |  |  |  |  |  |  | 
CC(=O)Nc1ccc(-n2c(C)nc(=O)c(-c3ccccc3)c2C)cc1 [drawing 460] |  |  |  |  |  |  | −0.1626 | −0.1764 | −0.2443 | −0.1679 | −0.3617 | −0.505 | 
CCO/C(C)=C1\C(=O)Nc2ccccc21 [drawing 497] |  |  |  |  |  |  | −0.1394 | 0.0259 | −0.3175 | −0.219 | −0.1574 | 0.04819 | 
Cc1ccccc1-n1c(S)nnc1Cc1cccs1 [drawing 312] |  |  |  |  |  |  | 0.05774 | 0.1436 | −0.03653 | 0.08958 | −0.1182 | −0.01563 | 
CCOc1ccccc1NC(=O)COC(=O)CNS(=O)(=O)c1ccc(C)cc1 [drawing 440] |  |  |  |  |  |  | −0.09293 | 0.0165 | −0.2547 | −0.2483 | −0.1393 | −0.07634 | 
CC(C)c1ccc(NC(=O)CN2C(=O)c3ccccc3S2(=O)=O)cc1 [Compound 150] |  |  |  |  |  |  |  |  |  |  |  |  | EC50 (given as log AC50 (negative values)): 10 µM; Score (Table 12 compound data): 42; Fit Curve Class (curve class number, key not given): 2.2; Fit HillSlope (curve fit): 4.5045; Fit Zero Activity [%] (curve fit, activity at zero concentration): −0.2112%
CCCC1C(c2cc(OC)c(OC)c(OC)c2)=Nc2c1c(=O)[nH]c(=O)n2Cc1ccccc1 (centres unmarked) [drawing 677] | 0.221 | 0.193 | −0.1488 | 0.1807 | −0.03424 | −0.4586 |  |  |  |  |  |  | 
O=C(N[C@@H](Cc1c[nH]c2ccccc12)C(=O)O)C1CCN(S(=O)(=O)c2cccs2)CC1 [drawing 414] |  |  |  |  |  |  | 0.08394 | 0.03833 | 0.03594 | −0.09429 | 0.01148 | −0.09282 | 
Cc1nnc(-c2ccc(N3CCOCC3)c([N+](=O)[O-])c2)o1 [drawing 546] | −0.06474 | −0.06237 | −0.05162 | −0.06761 | −0.1275 | −0.08865 |  |  |  |  |  |  | 
Cc1cccc2c(/N=N/c3ccc(S(=O)(=O)Nc4ccc(Cl)cc4)cc3[N+](=O)[O-])c(O)[nH]c12 [drawing 397] |  |  |  |  |  |  | −0.03979 | −0.05535 | −0.02922 | 0.02994 | −0.2047 | −0.2727 | 
N#C/C(=C1/C(=O)Nc2ccc(Br)cc21)c1ccccn1 [drawing 567] | 0.2021 | 0.000395 | −0.2923 | −0.4689 | −0.5478 | −0.6637 |  |  |  |  |  |  | 
CCc1c(C)sc(NC(=O)c2ccco2)c1C#N [drawing 320] |  |  |  |  |  |  | 0.1503 | 0.1892 | 0.6497 | −0.03138 | −0.1002 | −0.1982 | 
O=C1Nc2ccccc2/C1=C/c1c[nH]c(-c2ccccc2)n1 [drawing 548] | 0.05646 | 0.09843 | 0.2266 | 0.1719 | 0.06424 | 0.08092 |  |  |  |  |  |  | 
CSc1ccc(S(=O)(=O)NCc2ccccc2)cc1 [drawing 590] | −0.1174 | −0.07696 | 0.06657 | 0.6252 | 0.01406 | −0.1992 |  |  |  |  |  |  | 
Cc1[nH]c(/C=C2\C(=O)Nc3ccc([S+](=O)([O-])Cc4c(Cl)cccc4Cl)cc32)c(C)c1C(=O)C1CCCN1CN1CCCC1 (centres unmarked) [drawing 517] |  |  |  |  |  |  |  |  |  |  |  |  | Results in α7+/− β-galactosidase assay (Myotubes, 0.5 uM): −0.02882; Results in α7+/− β-galactosidase assay (Myotubes, 1 uM): −0.08557; Results in α7+/− β-galactosidase assay (Myotubes, 5 uM): 0.02824; Results in α7+/− β-galactosidase assay (Myotubes, 10 uM): −0.2838; Results in α7+/− β-galactosidase assay (Myotubes, 20 uM): −0.348; Results in α7+/− β-galactosidase assay (Myotubes, 40 uM): −0.7868
CCCC(=O)OCC(=O)c1[nH]c(C)c(C(C)=O)c1C [drawing 704] | 0.1272 | 0.03672 | 0.01568 | 0.2296 | −0.2776 | −0.5017 |  |  |  |  |  |  | 
CN(C)/C=N/c1nccc(-c2cccs2)n1 [Compound 121] |  |  |  |  |  |  |  |  |  |  |  |  | AC50 (Table 12): 8.91 µM; Fit HillSlope (Table 12, curve fit): 1.8851; Fit Zero Activity [%] [1]: 5.7133%; Fit Curve Class (Table 12, key not given): 2.1; Score [2]: 43
Cc1nnc(SCC(=O)c2ccc(Br)cc2)s1 [drawing 501] |  |  |  |  |  |  | −0.07126 | 0.01886 | −0.2188 | −0.3746 | −0.08999 | 0.006174 | 
Cc1cc(OCC(=O)NC(C)C)ccc1Cl [drawing 680] | −0.00101 | 0.01964 | −0.2128 | −0.3742 | −0.5775 | −0.6915 |  |  |  |  |  |  | 
Br.COc1ccc(C(=O)CN2CCCCC2)cc1 [Compound 181] |  |  |  |  |  |  |  |  |  |  |  |  | Fit Curve Class: 2.1; Fit HillSlope: 4.9549; Fit Zero Activity [%]: 12.5%; Score: 42; EC50: 12.6 µM
O=C(NCCc1ccccc1)C1CCC(=O)N1C1CCCC1 (centres unmarked) [drawing 351] |  |  |  |  |  |  | 0.05429 | −0.1351 | 0.08688 | 0.1206 | −0.1635 | −0.1123 | 
CN(/C(=N/S(=O)(=O)c1cccs1)c1ccccc1)c1ccccc1 [drawing 381] |  |  |  |  |  |  | −0.07971 | 0.1809 | 0.01531 | −0.02849 | 0.1022 | −0.209 | 
